# Laboratory results: US20120189564A1, “COMPOSITIONS OF VITAMIN C DERIVATIVE AND PORTULACA EXTRACT” (PRESPERSE CORPORATION, priority 2011, published 2012)
# Test system: B16-F10 melanoma cells
# Assay: Melanin formation inhibition (without UV stress) in B16-F10 melanoma cells
# Assay type: cell-based
# Description: Experiments were conducted to evaluate suppression of melanin synthesis using B16 melanoma cells by Portulaca Extract, ASG and Portulaca/ASG blend with and without UV stress at different levels. These experiments were performed to quantify skin whitening effects of the blend versus the individual components of the blend. Test (I)—Melanin Formation Inhibition (without UV Stress) Two sets of B16-F10 melanoma cells (ATCC 6475) were seeded at 6 well multi-plates with 1×10^5 density and cultured in Culbecco's Modified Eagle's Medium (DMEM) supplemented 10% fetal bovine serum (FBS) at 37° C. for 24 hours. The medium was exchanged with fresh DMEM media containing 10% FBS and test samples were added and cultured for 72 hours at 37° C. One set of cultured cells was washed with 2 ml of PBS (phosphate buffered saline) and cells were dissolved by 250 ul of 1N NaOH and melanin content was measured by UV absorbance at 450 nm. The other set of cells was incubated after adding 200 ul of MTT (2.5 mg/ml) at 37° C. for 4 hours. Culture medium was discarded and cells were dissolved for 10 minutes at room temperature by adding 2 ml of DMSO. After the cells were completely dissolved, UV absorbance was measured at 570 nm. […] [table]
compound,measurement,setting,value
"O=C1O[C@H]([C@H](O)CO)C(O)=C1O[C@H]1O[C@H](CO)[C@@H](O)[C@H](O)[C@H]1O [ASG, 2-0-α-D-glucopyranosyl-L-ascorbic acid]",melanin formation inhibition,"1.2% of ASG, 72 hours, FIGS. 1 and 2",about 20%
same,melanin formation inhibition (result in words),"B16-F10 cells, concentration series of Table 2",melanin formation inhibition in a dose dependent manner
